Our source for the Ki and Activity values is ChEMBL document CHEMBL1147425, “Structure-activity relationships of non-imidazole H(3) receptor ligands. Part 3: 5-Substituted 3-phenyl-1,2,4-oxadiazoles as potent antagonists” (Bioorg Med Chem Lett, 2004).

The Ki is the equilibrium dissociation constant of an inhibitor or competing ligand from its target. The low end stands for a stronger hold on the target, the high end for a looser hold on the target.

One assay addresses Histamine H1 receptor (Homo sapiens, UniProt P35367). The assay can be described thus: Binding affinity towards histamine H1 receptor of human colon cells was determined. It counts as cell-based.
The next assay addresses Histamine H4 receptor (Homo sapiens, UniProt Q9H3N8). The assay can be described thus: Binding affinity towards histamine H4 receptor of human colon cells was determined. It counts as cell-based.
For assay [1], the target named is Histamine H3 receptor (Homo sapiens, UniProt Q9Y5N1). The experiment in a line: Binding affinity for human histamine H3 receptor on human colon cells. Type of assay: cell-based.
A further assay deals with Histamine H2 receptor (Homo sapiens, UniProt P25021). The experiment in a line: Binding affinity towards histamine H2 receptor of human colon cells was determined. It counts as cell-based.
For assay [2], the target named is Histamine H3 receptor (Rattus norvegicus, UniProt Q9QYN8). The experiment in a line: Binding affinity for rat histamine H3 receptor on rat cortical cells.
Another assay has as its system Mus musculus. The experiment in a line: Antagonistic effect was observed against agonist induced dipsogenia in mice after i.p. administration of compound; Active. It counts as functional.

Histamine H3 receptor (Rattus norvegicus, UniProt Q9QYN8), sequence (Q9QYN8 whole entry): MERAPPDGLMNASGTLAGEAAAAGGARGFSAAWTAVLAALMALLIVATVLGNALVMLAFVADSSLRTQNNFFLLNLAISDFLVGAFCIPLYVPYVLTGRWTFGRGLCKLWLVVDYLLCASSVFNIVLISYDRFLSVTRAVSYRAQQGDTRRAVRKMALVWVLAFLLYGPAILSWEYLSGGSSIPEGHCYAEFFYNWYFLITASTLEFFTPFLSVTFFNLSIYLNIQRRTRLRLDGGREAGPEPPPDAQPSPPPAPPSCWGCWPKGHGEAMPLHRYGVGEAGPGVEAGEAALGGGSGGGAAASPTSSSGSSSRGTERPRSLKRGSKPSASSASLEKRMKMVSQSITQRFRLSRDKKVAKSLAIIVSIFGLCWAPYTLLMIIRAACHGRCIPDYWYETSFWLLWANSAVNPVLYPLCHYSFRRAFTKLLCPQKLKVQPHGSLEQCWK
Histamine H3 receptor (Homo sapiens, UniProt Q9Y5N1), sequence (Q9Y5N1 whole entry): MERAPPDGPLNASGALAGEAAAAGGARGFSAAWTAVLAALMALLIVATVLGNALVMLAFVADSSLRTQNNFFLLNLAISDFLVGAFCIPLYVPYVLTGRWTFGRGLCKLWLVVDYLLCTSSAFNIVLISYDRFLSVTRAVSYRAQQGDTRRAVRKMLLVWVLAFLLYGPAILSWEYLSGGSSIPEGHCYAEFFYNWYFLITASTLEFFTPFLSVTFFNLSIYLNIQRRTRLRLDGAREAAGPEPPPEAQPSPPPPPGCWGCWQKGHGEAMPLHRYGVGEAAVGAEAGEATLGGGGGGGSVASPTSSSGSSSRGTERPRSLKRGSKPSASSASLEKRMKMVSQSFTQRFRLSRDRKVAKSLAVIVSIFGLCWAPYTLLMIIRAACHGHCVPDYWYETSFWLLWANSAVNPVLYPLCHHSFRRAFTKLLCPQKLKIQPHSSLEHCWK
Histamine H4 receptor, sequence (Q9H3N8 whole entry): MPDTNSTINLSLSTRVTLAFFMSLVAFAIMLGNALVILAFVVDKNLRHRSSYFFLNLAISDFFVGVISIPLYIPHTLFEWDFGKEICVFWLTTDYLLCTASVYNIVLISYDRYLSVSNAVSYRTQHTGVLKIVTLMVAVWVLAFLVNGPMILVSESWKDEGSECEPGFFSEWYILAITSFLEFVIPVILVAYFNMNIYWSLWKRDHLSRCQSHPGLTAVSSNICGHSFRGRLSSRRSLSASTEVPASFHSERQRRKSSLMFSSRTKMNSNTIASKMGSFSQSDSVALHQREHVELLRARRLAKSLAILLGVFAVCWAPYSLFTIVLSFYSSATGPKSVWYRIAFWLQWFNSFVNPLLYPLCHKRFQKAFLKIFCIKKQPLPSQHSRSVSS
Histamine H2 receptor, sequence (P25021 whole entry): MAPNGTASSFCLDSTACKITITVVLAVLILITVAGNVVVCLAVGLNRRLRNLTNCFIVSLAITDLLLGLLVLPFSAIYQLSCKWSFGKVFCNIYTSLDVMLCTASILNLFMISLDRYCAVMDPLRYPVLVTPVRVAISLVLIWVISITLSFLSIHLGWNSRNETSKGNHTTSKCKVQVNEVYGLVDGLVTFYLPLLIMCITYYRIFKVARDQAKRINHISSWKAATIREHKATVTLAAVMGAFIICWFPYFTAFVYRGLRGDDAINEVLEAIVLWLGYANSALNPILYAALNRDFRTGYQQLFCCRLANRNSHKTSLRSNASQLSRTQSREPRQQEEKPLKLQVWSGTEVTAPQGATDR
Histamine H1 receptor, sequence (P35367 whole entry): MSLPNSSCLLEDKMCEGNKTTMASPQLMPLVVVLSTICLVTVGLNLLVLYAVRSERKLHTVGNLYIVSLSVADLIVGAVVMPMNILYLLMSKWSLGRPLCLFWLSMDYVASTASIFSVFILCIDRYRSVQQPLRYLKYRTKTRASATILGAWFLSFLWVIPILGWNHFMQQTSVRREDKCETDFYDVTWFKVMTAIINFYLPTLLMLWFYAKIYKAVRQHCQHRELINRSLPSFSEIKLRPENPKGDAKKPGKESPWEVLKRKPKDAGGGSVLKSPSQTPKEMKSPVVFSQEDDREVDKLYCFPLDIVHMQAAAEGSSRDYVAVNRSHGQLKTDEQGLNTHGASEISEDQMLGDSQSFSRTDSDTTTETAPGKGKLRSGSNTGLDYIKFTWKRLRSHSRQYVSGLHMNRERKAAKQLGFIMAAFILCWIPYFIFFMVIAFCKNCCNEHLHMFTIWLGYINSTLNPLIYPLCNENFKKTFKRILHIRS

Take `C[C@@H](NC(=O)c1ccc(N(C)C)cc1)C(=O)N1CCN(CCCOc2ccc(-c3noc(CC4CCCC4)n3)c(F)c2)CC1`: the inhibition constant Ki is 0.89 µM on Histamine H1 receptor; over 10 µM on Histamine H4 receptor; 0.015 µM on Histamine H3 receptor [1]; over 10 µM at Histamine H2 receptor; 0.0024 µM at Histamine H3 receptor [2]. Further, the Activity in the assay with Mus musculus was over 0.01 µM/kg.

As to `C[C@@H](NC(=O)c1ccc(Cl)cc1)C(=O)N1CCN(CCCOc2ccc(-c3noc(CC4CCCC4)n3)c(F)c2)CC1`, the Ki at Histamine H3 receptor [1] turned out to be 0.024 µM; on Histamine H3 receptor [2], 0.0028 µM.

`C[C@@H](NC(=O)c1ccco1)C(=O)N1CCCN(CCCOc2ccc(-c3noc(C4CCCO4)n3)c(F)c2)CC1` (mixture of isomers): the Ki at Histamine H3 receptor [1] was found to be 0.21 µM; at Histamine H3 receptor [2], 0.0077 µM.

As to `C[C@@H](NC(=O)c1ccco1)C(=O)N1CCN(CCCOc2ccc(-c3noc(-c4ccccc4)n3)c(F)c2)CC1` (stereo in doubt; 13q), the inhibition constant Ki on Histamine H3 receptor [1] was found to be 0.083 µM; on Histamine H3 receptor [2], 0.013 µM.
